Positions of bridges follow the written chain, without caps; N, C: chain ends. Non-standard residues stand in square brackets, D forms with d. Residues, ends and D or L forms follow the SMILES beside them. Chains are numbered I, II in the order given. βAla = NCCC(=O)O
Tests used:
mouse = settings: cited from earlier work
male rats = assay: Neurological toxicity in rats (Irwin test, body temperature, locomotor activity, body weight); assay type: in vivo
Protocol: The purpose of this study was to evaluate the neurological side-effects of SET-M33 following a single intravenous injection of 5, 9 and 15 mg/kg and vehicle (6 animals/group). The study was based on subjective observation of central nervous system effects on general behaviour (Irwin test), combined with objective evaluation of body temperature and locomotor activity in male rats[32],[33]. Effects on body weight were also assessed. Again the dose levels were selected on the basis of the DRF study reported above.
Evaluation of SET-M33 neurological toxicity was based on the method described by Irwin[32],[33]. On the day prior to dosing, detailed subjective observation of all animals was made to assess the neurobehavioral and physiological state of untreated rats. After subjective observation, rectal temperature was measured and spontaneous locomotor activity was assessed. On the day of dosing, the animals were treated and then returned to their home cages. […] During these observations, the following parameters were systematically evaluated for each animal using a standard procedure: lethality, restlessness, apathy, writhing, fighting, stereotyped behaviour, tremor, twitches, convulsions, exophthalmos, abnormal respiration, alertness, startle response, loss of righting reflex, abnormal body carriage, abnormal gait, Straub tail, piloerection, pupil diameter, light-pupil response, touch response, fearfulness, pinna reflex, corneal reflex, catalepsy, passivity, aggressiveness, body tone, grip strength, cutaneous blood flow, cyanosis, ptosis, lacrimation, salivation, pain response, motility impairment, grooming, diarrhoea, vocalization, increased urination. Normal attributes of animals (e.g. alertness, body tone etc.) were subjectively scored as 4; enhancement or depression of these attributes by SET-M33 was scored with higher or lower integers, respectively. Attributes normally absent in animals (e.g. abnormal gait, abnormal respiration, tremors etc.) were subjectively scored from 0 (normal) to 8. […] Finally, spontaneous locomotor activity was analysed. […]

Sprague Dawley rats = settings: rat, in vivo, iv, 15 mg/kg/day
Protocol: Necroscopy and histopathological examinations were performed at the end of treatment and at the end of the recovery period. Macroscopic changes were recorded in the kidneys (pale coloration and a reddened medullary area in almost all males and females from groups on 9 and 15 mg/kg/day) and bladder (distended in a few males of all treated groups). These findings were also recorded at the end of the recovery period affecting all animals dose at 15 mg/kg/day (pale coloration of the kidneys) or one male (distended urinary bladder). […] At the end of the recovery period the mean weight of the spleen (both sexes) and the mean weight of the kidneys and ovaries (females) from animals treated at 15 mg/kg/day were still higher with respect to control group. […] For 15 mg/kg/day group, the changes observed in the kidneys, bone marrow, uterine cervix and vagina were not reversible (see Supplementary Material for images and number of animals affected by these irreversible abnormalities), while the rest of the findings were fully (femorotibial growth plate and duodenum) or partially recovered (heart, ovaries and mammary glands) after 2 weeks of recovery period.
All animals underwent necropsy. Descriptions of all macroscopic abnormalities were recorded. […]

beagle dogs [1] = assay: Dose range finding in dogs: clinical signs, body weight, survival; assay type: in vivo, dog
Protocol: The purpose of this study was to conduct DRF for SET-M33 administered by short intravenous infusion (30 min) to beagle dogs at 4.0 and 8.0 mg/kg/day (7-day treatment period). Two animals served as control group (one male, one female), and four animals were assigned to treated groups (two males, two females). The doses were determined by a preliminary study not reported here.
Naïve beagle dogs were used for the toxicity studies. The animals were supplied by Marshall US. They were 9–10 months old at the start of treatment with a body-weight range of 9.1–10 kg for the DRF study. They were 6–7 months old at the start of treatment with a body-weight range of 6.6–8.6 kg for males and 5.1–6.5 kg for females for the 4-week toxicity study. The method of administration was an intravenous short infusion with an infusion pump, alternately either into the cephalic or saphenous veins using sterile disposable cannulas and syringes. The volume of the dose of SET-M33 and control in two studies was 2, 5 and 5 mL/Kg body weight, respectively.
Viability/mortality were recorded at least twice daily. […] Injection sites were examined daily during dosing. For clinical investigation, blood obtained via jugular venepuncture from anaesthetized dogs was used to analyse blood, coagulation and biochemical parameters.

beagle dogs [2] = assay: Four-week toxicity study with 4-week recovery in dogs: survival, ECG, NOAEL; assay type: in vivo, dog
Protocol: Beagle dogs (5/sex/group) were dosed by intravenous infusion once daily for 1 h with 0 (0.9% sodium chloride for injection), 0.5, 1.5 or 4.0 mg/kg/day SET-M33 for four consecutive weeks. The doses were selected in the dog DRF study (above). The dose of 4 mg/kg/day was selected as the highest dose without macroscopic side effects in the DRF study, and was used to evaluate renal toxicity and its reversibility. The dose of 0.5 mg/kg/day was selected as the lowest dose, about one order of magnitude less than the highest dose. The dose of 1.5 mg/kg/day was selected as an approximately median mid-dose. On completion of 4 weeks of infusion, three animals/sex/group were euthanized and necropsied and the remaining two animals/sex/group were held for a 4-week drug free recovery period after which they were euthanized and necropsied. Blood samples were obtained from all animals on days 1 and 28 for toxicokinetic analysis.
Animals were observed daily for mortality and signs of severe toxic or pharmacological effects. […] Blood obtained via jugular venepuncture from anaesthetized dogs was used to analyse blood, coagulation and clinical chemistry parameters for 5 animals/sex/group pre-test and at termination of dosing and from 2 animals/sex/group at the end of recovery.

In the case of `CC[C@H](C)[C@H](NC(=O)[C@H](CCCCN)NC(=O)[C@@H](N)CCCCN)C(=O)N[C@@H](CCCNC(=N)N)C(=O)N[C@H](C(=O)N[C@@H](CCCNC(=N)N)C(=O)N[C@@H](CC(C)C)C(=O)N[C@@H](CO)C(=O)N[C@@H](C)C(=O)NCCCC[C@H](NC(=O)[C@H](C)NC(=O)[C@H](CO)NC(=O)[C@H](CC(C)C)NC(=O)[C@H](CCCNC(=N)N)NC(=O)[C@@H](NC(=O)[C@H](CCCNC(=N)N)NC(=O)[C@@H](NC(=O)[C@H](CCCCN)NC(=O)[C@@H](N)CCCCN)[C@@H](C)CC)C(C)C)C(=O)NCCCC[C@H](NC(=O)[C@H](CCCCNC(=O)[C@H](C)NC(=O)[C@H](CO)NC(=O)[C@H](CC(C)C)NC(=O)[C@H](CCCNC(=N)N)NC(=O)[C@@H](NC(=O)[C@H](CCCNC(=N)N)NC(=O)[C@@H](NC(=O)[C@H](CCCCN)NC(=O)[C@@H](N)CCCCN)[C@@H](C)CC)C(C)C)NC(=O)[C@H](C)NC(=O)[C@H](CO)NC(=O)[C@H](CC(C)C)NC(=O)[C@H](CCCNC(=N)N)NC(=O)[C@@H](NC(=O)[C@H](CCCNC(=N)N)NC(=O)[C@@H](NC(=O)[C@H](CCCCN)NC(=O)[C@@H](N)CCCCN)[C@@H](C)CC)C(C)C)C(=O)NCCC(=O)O)C(C)C` [SET-M33] (I: H-KKIRVRLSAKK[βAla]-OH / II: H-KKIRVRLSAK / III: H-KKIRVRLSA / IV: H-KKIRVRLSA; amide I:10-IV:C, I:11-II:C, II:10-III:C (inferred); N-terminus and C-terminus assumed), the efficacy dose (mouse) is listed as 5 mg/kg, the “adverse clinical signs (Irwin test)” value (male rats; male rats, 5, 9 and 15 mg/kg single iv, 5, 30, 90, 240 min and 24 h post-dose) is listed as “did not cause any adverse clinical signs” and the “delayed toxicity and mortality” value (male rats; male rats, 5, 9 and 15 mg/kg single iv, up to day 7) is listed as “No delayed effects of toxicity and no mortality”. For the same compound, the “group mean body temperature lower than vehicle-treated control group” value (male rats; male rats, 9 and 15 mg/kg single iv, 5 min post-dose) was 0.4–0.6 °C, the “cervical and vaginal epithelial atrophy, incidence” value (Sprague Dawley rats) was 1 out of 5 and the survival (beagle dogs [1]; dogs, 4.0 and 8.0 mg/kg/day 30-min iv infusion, 7 days) was “All animals survived the scheduled period”. The “loss of body weight with respect to day 1” value (beagle dogs [1]; one dog, 8 mg/kg/day 30-min iv infusion, end of 7-day treatment) was 9.4%, the “effect on heart function, ECG parameters (heart rate, PR, QRS, QT and QTc intervals)” value (beagle dogs [2]; beagle dogs, daily iv infusion at ≥ 0.5 mg/kg/day, males and females) was “did not produce any observable effect on heart function” and the survival (beagle dogs [2]; dogs, 0.5, 1.5 or 4.0 mg/kg/day 1-h iv infusion, 4 weeks + 4-week recovery) was “All animals survived until their scheduled termination”.

From paper PMC9652379, “Safety evaluations of a synthetic antimicrobial peptide administered intravenously in rats and dogs” (Scientific Reports, 2022)
